Among the data in the supplement of paper PMC11061612 are Bliss excess values, retold here.

What all share (assay): Bliss excess, mean over the matrix (fraction); higher = more synergy
Assay [1] has as its system BFTC-909 (Kidney Carcinoma). Put shortly:
(§1)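 Bliss excess equals the observed combination effect minus the expected value EA + EB − EA·EB, where EA and EB are the effects of each agent alone. Combination Emax is the second-highest inhibition within the matrix. Inhibition was scaled from CellTiter-Glo 2.0 luminescence, with 0 set by vehicle wells and 1 by blank wells, after 72 hours of two-drug dosing of cells plated in 1536-well plates.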

Assay [2] concerns CAL-33 (Oral Cavity Carcinoma). Put shortly:
as §1

Assay [3] has as its system Detroit562 (Head and Neck Carcinoma). In a few lines: as §1
The test system of assay [4] is ESS-1 (Other Solid Carcinomas). In a few lines:
as §1

Assay [5] deals with FTC-133 (Thyroid Gland Carcinoma). Put shortly: as §1
Assay [6] deals with KMRC-20 (Kidney Carcinoma). In a few lines:
as §1

For another assay, the system named is KS-1 (Glioblastoma). Put shortly:
as §1

Assay [7] deals with KYAE-1 (Esophageal Adenocarcinoma). In a few lines: as §1
The test system of another assay is LOXIMVI (Melanoma). In a few lines: as §1
The subject of assay [8] is NCI-H1568 (Lung Adenocarcinoma). In a few lines: as §1
The subject of assay [9] is NUGC-4 (Gastric Carcinoma). Put shortly: as §1
Assay [10] has as its system OE21 (Esophageal Squamous Cell Carcinoma). Put shortly: as §1
For assay [11], the system named is OVCAR-5 (Ovarian Carcinoma). In a few lines: as §1
Assay [12] deals with SAS (Oral Cavity Carcinoma). Put shortly: as §1
For assay [13], the system named is SNU-16 (Gastric Carcinoma). In a few lines:
as §1

Assay [14] deals with SW1710 (Bladder Carcinoma). In a few lines:
as §1

The subject of assay [15] is TGBC1TKB (Biliary Tract Carcinoma). In a few lines: as §1
Assay [16] has as its system WSU-NHL (B-Cell Non-Hodgkin's Lymphoma). In a few lines: as §1
The subject of assay [17] is YAPC (Pancreatic Carcinoma). Put shortly:
as §1

Consider `CN(C)CCCOc1ccc(-c2ccc3ncc4c(c3c2)n(C2CCOCC2)c(=O)n4C)cn1` [AZD0156] + C=CCn1c(=O)c2cnc(Nc3ccc(N4CCN(C)CC4)cc3)nc2n1-c1cccc(C(C)(C)O)n1 [AZD1775] (first compound max 1 µM, partner max 1 µM), for which the Bliss excess in assay [1] was -0.0638; in assay [2], -0.0497; in [3], -0.0122; in assay [4], -0.124; in assay [5] it was -0.0416; in [6], -0.0707. Besides, the Bliss excess is -0.0268 in the assay with KS-1 (Glioblastoma); -0.0143 in assay [7]; 0.0604 in the assay with LOXIMVI (Melanoma); -0.0493 in [8]; -0.055 in assay [9]; 0.0083 in assay [10]. The Bliss excess in [11] is -0.0043; in [12] it was -0.0742; in [13], -0.0158; in [14] it was -0.0205; in assay [15], -0.0734; in assay [16] it was -0.002. Besides, in [17], the Bliss excess is -0.0575.
`CN(C)CCCOc1ccc(-c2ccc3ncc4c(c3c2)n(C2CCOCC2)c(=O)n4C)cn1` [AZD0156] + CCN(CCO)CCCOc1ccc2c(Nc3cc(CC(=O)Nc4cccc(F)c4)[nH]n3)ncnc2c1 [AZD2811] (first compound max 1 µM, 7x7, partner max 1 µM): the Bliss excess in assay [1] was -0.0015; in assay [2], -0.0139; in assay [3], 0.0235; in assay [4], 0.0179; in [5], -0.0214; in assay [6], -0.0499. Besides, the Bliss excess with KS-1 (Glioblastoma) was 0.0228; in assay [7], -0.0154; in the assay with LOXIMVI (Melanoma) it was -0.0125; in [8] it was -0.0376; in [9], -0.0387; in [10] it was -0.0048. In addition, the Bliss excess in [11] is -0.0281; in assay [12], -0.0391; in assay [13], 0.0244; in [14], -0.0288; in [15] it was -0.043; in assay [16] it was -0.005. Moreover, the Bliss excess in assay [17] is -0.0536.
In the case of `C=CCn1c(=O)c2cnc(Nc3ccc(N4CCN(C)CC4)cc3)nc2n1-c1cccc(C(C)(C)O)n1` [AZD1775] + CCc1c2c(nc3ccc(O)cc13)-c1cc3c(c(=O)n1C2)COC(=O)[C@]3(O)CC [SN-38] (first compound max 1 µM, partner max 0.3 µM), the Bliss excess was -0.0011 in assay [4]; -0.0389 with KS-1 (Glioblastoma); -0.0013 in assay [7]; -0.0862 in the assay with LOXIMVI (Melanoma); -0.0215 in [11]; 0.0334 in [12]. Besides, the Bliss excess in assay [13] is -0.0475; in [14], 0.0053; in [15], -0.0491; in assay [16], -0.0306; in assay [17], -0.0599.
Turning to `C=CCn1c(=O)c2cnc(Nc3ccc(N4CCN(C)CC4)cc3)nc2n1-c1cccc(C(C)(C)O)n1` [AZD1775] + Nc1ccn([C@@H]2O[C@H](CO)[C@@H](O)C2(F)F)c(=O)n1 [Gemcitabine] (first compound max 1 µM, partner max 0.3 µM), the Bliss excess was 0.0774 in [4]; 0.0304 in the assay with KS-1 (Glioblastoma); -0.0118 in the assay with LOXIMVI (Melanoma); 0.0364 in [11]; 0.0585 in assay [12]; -0.013 in assay [13]. Moreover, the Bliss excess in [14] is 0.0838; in assay [15], -0.02; in assay [16] it was -0.0035; in [17] it was 0.109.
As for `CN(CCO)CC[C@H](CSc1ccccc1)Nc1ccc(S(=O)(=O)NC(=O)c2ccc(N3CCC([C@@H](O)c4ccccc4-c4ccc(Cl)cc4)CC3)cc2)cc1S(=O)(=O)C(F)(F)F` [AZD4320] + CS(=O)(=O)CCNCc1ccc(-c2ccc3ncnc(Nc4ccc(OCc5cccc(F)c5)c(Cl)c4)c3c2)o1 [Lapatinib] (first compound max 1 µM, 7x7, partner max 10 µM), the Bliss excess in assay [4] is 0.0668; in the assay on KS-1 (Glioblastoma), 0.0137; in [7] it was 0.0699; in the assay on LOXIMVI (Melanoma), 0.0113; in assay [11], -0.0031; in [12] it was 0.0214. In addition, the Bliss excess in assay [13] is 0.0399; in [14] it was -0.0324; in [15] it was 0.0019; in assay [16], 0.0183; in assay [17], -0.0148.
Take `Cc1c2c(nn1C)CSCc1cc(n(C)n1)CSc1cc(c3ccccc3c1)OCCCc1c(C(=O)O)n(C)c3c-2c(Cl)ccc13` [AZD5991] + CC(=O)O[C@H]1C(=O)[C@@]2(C)[C@H]([C@H](OC(=O)c3ccccc3)[C@]3(O)C[C@H](OC(=O)[C@H](O)[C@@H](NC(=O)c4ccccc4)c4ccccc4)C(C)=C1C3(C)C)[C@]1(OC(C)=O)CO[C@@H]1C[C@@H]2O [Paclitaxel] (first compound max 1 µM, 7x7, partner max 3 µM): the Bliss excess in [4] was 0.0341; in the assay on KS-1 (Glioblastoma) it was -0.0057; in [7], 0.0015; in the assay with LOXIMVI (Melanoma) it was -0.0081; in assay [11] it was -0.0389; in assay [12], 0.0067. Further, the Bliss excess in assay [13] is 0.0119; in assay [14], -0.0241; in [15], -0.0892; in assay [16], -0.0565; in [17], 0.0224.
`Cc1c2c(nn1C)CSCc1cc(n(C)n1)CSc1cc(c3ccccc3c1)OCCCc1c(C(=O)O)n(C)c3c-2c(Cl)ccc13` [AZD5991] + CS(=O)(=O)CCNCc1ccc(-c2ccc3ncnc(Nc4ccc(OCc5cccc(F)c5)c(Cl)c4)c3c2)o1 [Lapatinib] (first compound max 1 µM, 7x7, partner max 10 µM): the Bliss excess in assay [4] was 0.0292; in the assay on KS-1 (Glioblastoma), -0.0277; in [7], 0.0569; with LOXIMVI (Melanoma), 0.017; in assay [11], -0.0071; in assay [12] it was -0.0208. Also, the Bliss excess is -0.0003 in assay [13]; -0.0639 in assay [14]; -0.0463 in [15]; -0.0347 in [16]; -0.0084 in [17].
In the case of `C[C@@H](Nc1cc(F)cc(F)c1)c1cc(C(=O)N(C)C)cc2c(=O)cc(N3CCOCC3)oc12` [AZD8186] + C1CN(CCC1(C(=O)N[C@@H](CCO)C2=CC=C(C=C2)Cl)N)C3=NC=NC4=C3C=CN4 [AZD5363] (first compound max 10 µM, 7x7, partner max 10 µM), the Bliss excess in assay [4] is -0.0165; in the assay on KS-1 (Glioblastoma), -0.0233; in assay [7], -0.0101; with LOXIMVI (Melanoma) it was -0.0495; in assay [11] it was -0.0442; in [12], -0.0226. The Bliss excess was -0.0549 in assay [13]; -0.0408 in assay [14]; 0.0539 in [15]; -0.0018 in assay [16]; -0.0214 in [17].
